Source: patent publication US20050256188A1, “Formulations of anthraquinone derivatives” (priority 2002, published 2005)
Where a SMILES comes first, the peptide text is derived from it.

How the values were obtained:
[1] = pH of AQ4N salts in aqueous solution; assay type: physicochemical; settings: 1.4 mM in water; in Table 4 the label is the acid whose AQ4N disalt was measured
Procedure: Stock solutions of individual AQ4N salts were prepared by transferring about 1 mg, accurately weighed, and diluting with water to obtain solutions of 1.4 mM. The solution was vortexed for 3 min using a Fisons WhirlMixer™ (Loughborough, Leicestershire, UK). All AQ4N salt solutions were prepared on the same day as determination of the pH value of the solutions, which was done using a digital pH meter (calibrated at 21±1° C. with standard buffers of pH 7.00 and 4.00 from BDH (UK).

[2] = cited from earlier work; for pKa1 of acid used to prepare AQ4N disalt: value of the free acid, from IUPAC Handbook of Pharmaceutical Salts; for pKa at 25° C. (pKa1): Table 1, pKa1; for pKa at 25° C.: Table 1, pKa index not given
[3] = Degradation of AQ4N dihydrochloride in solution at 40° C.: accumulation of AQMN (HPLC); assay type: physicochemical; settings: for AQMN increase per day: 14 days, % w.r.t. AQ4N
Procedure: The degradation of AQ4N was investigated using 5 mg/ml solutions of AQ4N at a pH of 2.4, 4.5 and 6.8, which equated to water, 20 mM sodium acetate buffer and 20 mM sodium orthophosphate buffer, respectively. The primary degradation pathway of AQ4N is its conversion to AQMN. The increase in AQMN concentration in 5 mg/ml solutions incubated at 40° C. over an intermediate time period (14 days) is shown in FIG. 3.
The effect of pH on the stability of AQ4N was determined by investigating AQ4N degradation in different solutions. The solutions chosen were again distilled water, 20 mM sodium acetate buffer (pH=4) and 20 mM sodium phosphate buffer (pH=7). After preparation of the 5 mg/ml AQ4N buffered solutions the pH was corrected to the required pH of the buffer. The final pHs were 2.4, 4.5 and 6.8 for the distilled water, 20 mM sodium acetate buffer and 20 mM sodium phosphate buffer, respectively. The samples were incubated at 40° C. and sampled at regular intervals. Assay was carried out by sample dilution followed by HPLC analysis.

**Q.** For AQ4N di-benzenesulfonate [Example 6], which “measured pH of AQ4N di-salt solutions (1.4 mM)” value (“measured pH” below) [1] is on record?
**A.** 2.4

**Q.** What does the source list for `O=S(=O)(O)c1ccccc1` [Benzenesulfonic, benzenesulfonic acid]?
**A.** measured pH of AQ4N di-salt solutions (1.4 mM) [1]: 2.5; pKa1 of acid used to prepare AQ4N disalt [2]: −2.5

**Q.** Which “pKa at 25° C. (pKa1)” value [2] does the source give for `CC(CC(=O)O)(CC(=O)O)C(=O)O` [2-Methylpropane-1,2,3-triscarboxylic] here?
**A.** 3.53 (pKa1)

**Q.** For `O=C(O)c1ccccc1C(=O)O` [Phthalic], which “pKa at 25° C.” value [2] is on record?
**A.** 2.90

**Q.** What does the source list for `C[N+](C)([O-])CCNc1ccc(NCC[N+](C)(C)[O-])c2c1C(=O)c1c(O)ccc(O)c1C2=O.Cl.Cl` [AQ4N dihydrochloride]?
**A.** measured pH of AQ4N di-salt solutions (1.4 mM) [1]: 2.4; AQMN increase per day ([3]; 20 mM sodium acetate buffer, pH 4.5, 5 mg/ml solution): 0.19%; AQMN increase per day ([3]; 20 mM sodium orthophosphate buffer (PO4), pH 6.8, 5 mg/ml solution): 0.02%; AQMN increase per day ([3]; H2O, pH 2.4, 5 mg/ml solution): 0.84%; AQMN increase per month ([3]; phosphate buffer, 5 mg/ml solution, 63 days): 0.6%

**Q.** Which “pKa at 25° C.” value [2] does the source give for `OCCN(CCO)C(CO)(CO)CO` [Bis(2-hydroxyethyl)iminotris(hydroxymethyl)methane] here?
**A.** 6.46

**Q.** For `O=C1CC(=O)NC(=O)N1` [Barbituric], which “pKa at 25° C.” value [2] is on record?
**A.** 3.98

**Q.** Which “measured pH” value [1] does the source give for `O=C(O)CC(=O)O` [Malonic, malonic acid] here?
**A.** 2.8

**Q.** For AQ4N di-acetate [Example 14], which “measured pH” value [1] is on record?
**A.** 3.8

**Q.** Which “measured pH” value [1] does the source give for `O=C(O)C(O)C(O)C(=O)O` (centres unmarked) [Tartaric, tartaric acid] here?
**A.** 2.8

**Q.** With `Cl` [Hydrochloric, hydrochloric acid] as the compound, how does the “measured pH” value [1] read?
**A.** 2.4

**Q.** Which “pKa at 25° C. (pKa1)” value [2] does the source give for `O=C(O)c1cc(C(=O)O)c(C(=O)O)c(C(=O)O)c1C(=O)O` [Benzenepentacarboxylic] here?
**A.** 2.34 (pKa1)

**Q.** Which “pKa at 25° C. (pKa1)” value [2] does the source give for `COc1cc2c(cc1OC)[C@@]13CCN4CC5=CCO[C@H]6CC(=O)N2[C@H]1[C@H]6[C@H]5C[C@H]43.O.O.O.O` [Brucine tetrahydrate] here?
**A.** 2.30 (pKa1)

**Q.** Which “pKa at 25° C. (pKa1)” value [2] does the source give for `O=C(O)CC(O)C(=O)O` (centres unmarked) [Malic] here?
**A.** 3.40 (pKa1)

**Q.** And the “pKa at 25° C. (pKa2)” value ([2]; Table 1, pKa2)?
**A.** 5.05 (pKa2)

**Q.** For AQ4N di-dichloroacetate [Example 7], which “measured pH” value [1] is on record?
**A.** 2.5

**Q.** With `NCC(=O)NCC(=O)O` [Glycylglycine] (H-Gly-Gly-OH) as the compound, how does the “pKa at 25° C.” value [2] read?
**A.** 3.06

**Q.** With `CC(=O)O` [Acetic, acetic acid] as the compound, how does the “measured pH” value [1] read?
**A.** 3.8

**Q.** For `CC(O)C(=O)O` (racemic) [Lactic, Lactic acid], which “measured pH” value [1] is on record?
**A.** 3.5

**Q.** With `O=C(O)CC(O)(CC(=O)O)C(=O)O` [Citric, citric acid] as the compound, how does the “measured pH” value [1] read?
**A.** 3.3

**Q.** Which “measured pH” value [1] does the source give for AQ4N di-pimelate [Example 13] here?
**A.** 3.8

**Q.** For `C=C(CC(=O)O)C(=O)O` [Itaconic], which “pKa at 25° C. (pKa1)” value [2] is on record?
**A.** 3.84 (pKa1)

**Q.** With `O=C(O)C(Cl)Cl` [Dichloroacetic, dichloroacetic acid] as the compound, how does the “measured pH” value [1] read?
**A.** 2.4

**Q.** Which “measured pH” value [1] does the source give for `O=C(O)/C=C\C(=O)O` [Maleic, maleic acid] here?
**A.** 2.6

**Q.** For `O=C(O)c1cc(C(=O)O)cc(C(=O)O)c1` [Benzene-1,3,5-tricarboxylic (trimesic)], which “pKa at 25° C. (pKa1)” value [2] is on record?
**A.** 3.16 (pKa1)

**Q.** For `C/C=C/C=C/C(=O)O` [Sorbic], which “pKa at 25° C.” value [2] is on record?
**A.** 4.76

**Q.** For `O=C(O)CCCCCC(=O)O` [Pimelic, pimelic acid], which “measured pH” value [1] is on record?
**A.** 3.8

**Q.** And the “pKa at 25° C.” value [2]?
**A.** 4.48

**Q.** What about the “pKa1 of acid used to prepare AQ4N disalt” value [2] of the same compound?
**A.** 4.48

**Q.** With `O=C(O)c1cccc(C(=O)O)c1C(=O)O` [Benzene-1,2,3-tricarboxylic (hemimellitic)] as the compound, how does the “pKa at 25° C. (pKa1)” value [2] read?
**A.** 2.98 (pKa1)
